Source: patent US5356790A, “Highly sensitive assay method for myo-inositol, composition for practicing same, novel myo-inositol dehydrogenase, and process for producing same” (Asahi Kasei Kogyo Kabushiki Kaisha, priority 1990, dated 1994)
Several values for one entry are separate records, joined by “and”; a condition that tells them apart may be missing. Equal values may be shown once. Read-outs that look alike come from different tables or passages of the source.

Columns and labels:
[1] = test system: myo-inositol dehydrogenase; assay: Substrate specificity of myo-inositol dehydrogenase; type: biochemical, Bacillus sp. No. 3; settings: myo-inositol = 100%
Protocol: 1. Substrate specificity:
The above reaction mixture (1 ml) is incubated in a small test tube at 37° C. for 5 mins. Diluted enzyme solution (0.02 ml) is added and the mixture is stirred to initiate the reaction. After exactly 10 mins., 0.1N HCl (2.0 ml) was added and the mixture is stirred to stop the reaction. Absorption at 550 nm (A550 nm) is measured to obtain absorption A1. The assay was repeated using the above reaction mixture except that myo-inositol was not included. The mixture is also treated in the same manner as described above and its absorption Ao was measured.
(3) Calculation of enzyme activity: [formula] wherein

[2] = test system: myo-inositol dehydrogenase; settings: enzyme produced by yeast Cryptococcus melibiosum, cited from earlier work
[3] = test system: myo-inositol dehydrogenase; assay: Km-value measurement for substrate and coenzymes; type: biochemical, Bacillus sp. No. 3
Protocol: Km-value for myo-inositol is measured at various concentrations of myo-inositol in a reaction mixture of:
Further in the reaction mixture, 1 mM NAD is replaced by 1 mM thio-NAD (Sigma Co. ) and the Km-value for myo-inositol is measured. The result is Km-value: 10.0 mM (myo-inositol).
Km-value in the reaction of NADP and myo-inositol are measured. The results are as follows:
Km-values in the reaction of the thio-NADP and myo-inositol are as follows: […]

[4] = test system: myo-inositol dehydrogenase; assay: Relative activity with coenzyme thio-NAD compared to NAD; type: biochemical, Bacillus sp. No. 3

Compound | Substrate specificity (relative activity) [1] | other results
galactose | 0% | 
O=C(CO)[C@@H](O)[C@H](O)[C@H](O)CO [fructose] | 0% | 
NC(=O)c1ccc[n+]([C@@H]2O[C@H](COP(=O)([O-])OP(=O)(O)OC[C@H]3O[C@@H](n4cnc5c(N)ncnc54)[C@H](O)[C@@H]3O)[C@@H](O)[C@H]2O)c1 [NAD, nicotinamide adenine dinucleotide] |  | Km ([2]; read-out: Km value for NAD): ~70 µM
glucose | 0% | 
mannose | 0% | 
OC[C@H]1O[C@@H](O[C@H]2[C@H](O)[C@@H](O)C(O)O[C@@H]2CO)[C@H](O)[C@@H](O)[C@H]1O (stereo partly drawn) [lactose] | 0% | 
O[C@H]1[C@H](O)[C@@H](O)[C@H](O)[C@@H](O)[C@H]1O [myo-inositol] | 100% | Km ([3]; coenzyme 1 mM NAD, Tris-HCl buffer pH 8.5, read-out: Km-value (myo-inositol)): 640 µM and ~600 µM; Km ([3]; coenzyme 1 mM thio-NAD, read-out: Km-value (myo-inositol)): 10000 µM; Km ([3]; reaction of NADP and myo-inositol, read-out: Km-value (myo-inositol)): 30900 µM; Km ([2]; read-out: Km value for myo-inositol): ~11000 µM
OC[C@@H](O)[C@@H](O)[C@H](O)[C@@H](O)CO [sorbitol] | 0% | 
NC(=O)c1ccc[n+]([C@@H]2O[C@H](COP(=O)([O-])OP(=O)(O)OC[C@H]3O[C@@H](n4cnc5c(N)ncnc54)[C@H](OP(=O)(O)O)[C@@H]3O)[C@@H](O)[C@H]2O)c1 [NADP, nicotinamide adenine dinucleotide phosphate] |  | Km ([3]; reaction of NADP and myo-inositol, read-out: Km-value (NADP)): 190 µM
NC(=S)c1ccc[n+]([C@@H]2O[C@H](COP(=O)([O-])OP(=O)(O)OC[C@H]3O[C@@H](n4cnc5c(N)ncnc54)[C@H](O)[C@@H]3O)[C@@H](O)[C@H]2O)c1 [thio-NAD, thionicotinamide adenine dinucleotide] |  | Km ([3]; 150 mM myo-inositol, read-out: Km-value (thio-NAD)): 170 µM; Relative activity when coenzyme thio-NAD is used, as compared to NAD [4]: 10-15%
OC[C@H]1O[C@H](O[C@H]2[C@H](O)[C@@H](O)[C@H](O)O[C@@H]2CO)[C@H](O)[C@@H](O)[C@@H]1O [maltose] | 0% | 
OC[C@H]1O[C@@](CO)(O[C@H]2O[C@H](CO)[C@@H](O)[C@H](O)[C@H]2O)[C@@H](O)[C@@H]1O [saccharose] | 0% | 
NC(=S)c1ccc[n+]([C@@H]2O[C@H](COP(=O)([O-])OP(=O)(O)OC[C@H]3O[C@@H](n4cnc5c(N)ncnc54)[C@H](OP(=O)(O)O)[C@@H]3O)[C@@H](O)[C@H]2O)c1 [thio-NADP, thionicotinamide adenine dinucleotide phosphate] |  | Km ([3]; reaction of thio-NADP and myo-inositol, read-out: Km-value (thio-NADP)): 2540 µM
